Test results as given in patent publication US20230278972A1, “SUBSTITUTED HALOALKYL SULFONANILIDE HERBICIDES” (FMC Corporation, priority 2020, published 2023).

Columns and labels:
Assay type in all cases: in vivo
[1] = tested on: ragweed (common ragweed, Ambrosia artemisiifolia); test: Test A1 preemergence, ragweed
Outline: (§1)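 Seeds were first planted into a blend of loam soil and sand and given a preemergence directed soil spray. In parallel, pots of the same soil were sown for postemergence application once plants reached 2 to 10 cm and the one- to two-leaf stage. Both used surfactant-containing non-phytotoxic solvent formulations.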

[2] = tested on: Oat, Wild (wild oat, Avena fatua); test: Test A1 postemergence, Oat, Wild; details: Postemergence
Outline: as §1

[3] = tested on: Pigweed, Palmer (palmer amaranth, palmer pigweed, Amaranthus palmeri); test: Test A1 postemergence, Pigweed, Palmer; details: Postemergence
Outline: as §1

[4] = tested on: Foxtail, Giant (giant foxtail, Setaria faberi); test: Test A1 postemergence, Foxtail, Giant; details: Postemergence
Outline: (§2)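 Herbicidal response was scored on plants treated either preemergence, by directed spray onto soil of a loam–sand blend after sowing, or postemergence on potted plants at the one- to two-leaf stage, 2–10 cm high. Test chemicals were carried in a non-phytotoxic solvent mix with surfactant.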

[5] = tested on: barnyardgrass (Echinochloa crus-galli); test: Test B1 flooded paddy test, barnyardgrass; details: 250 g ai/ha, Flood, applied to paddy water, 2-leaf stage, visually evaluated after 10 to 14 days
Text: A dash (-) response means no test result.

[6] = tested on: blackgrass (Alopecurus myosuroides); test: Test A1 postemergence, blackgrass; details: Postemergence, 0 to 100 scale (0 no effect, 100 complete control)
Outline: as §2

[7] = tested on: goosegrass (Eleusine indica); test: Test A1 postemergence, goosegrass; details: Postemergence
Outline: as §2

[8] = tested on: wheat (Triticum aestivum); test: Test A1 preemergence, wheat
Outline: as §1

[9] = 31 g ai/ha, 0 to 100 scale (0 no effect, 100 complete control)
[10] = 125 g ai/ha, 0 to 100 scale, 0 no effect, 100 complete control
[11] = 31 g ai/ha, 0 to 100 scale (0 no effect, 100 complete control), 10 days

Row | SMILES | Plant response rating, Ragweed [1, 9] | Plant response rating, Ragweed [1, 10] | Plant response rating, Oat, Wild [2, 11] | Plant response rating, Oat, Wild ([2]; 125 g ai/ha, 0 to 100 scale) | Plant response rating, Pigweed, Palmer [3, 11] | Plant response rating, Pigweed, Palmer ([3]; 125 g ai/ha, 0 to 100 scale) | Plant response rating, Foxtail, Giant [4, 11] | Plant response rating, Foxtail, Giant ([4]; 125 g ai/ha, 0 to 100 scale) | Plant response rating, Barnyardgrass (0 to 100 scale, 0 is no effect, 100 is complete control) [5] | Plant response rating, Blackgrass ([6]; 31 g ai/ha, 10 days) | Plant response rating, Blackgrass ([6]; 125 g ai/ha) | Plant response rating, Goosegrass [7, 11] | Plant response rating, Goosegrass ([7]; 125 g ai/ha, 0 to 100 scale) | Plant response rating, Wheat [8, 9] | Plant response rating, Wheat [8, 10]
1 | CCC1ON=C(c2cc(N(C(=O)OCC(C)C)S(=O)(=O)C(F)(F)F)c(C)cc2C)C1CC (stereo not drawn) [Compound 345] | 0 | 0 | 20 | 40 | 40 | 60 | 30 | 50 | 95 | 20 | 40 | 0 | 70 | 30 | 10
2 | CCC1ON=C(c2cc(NS(=O)(=O)C(F)(F)F)c(C)cc2C)C1CC (stereo not drawn) [Compound 346] | 0 | 10 | 20 | 40 | 20 | 50 | 30 | 50 | 90 | 0 | 60 | 40 | 90 | 20 | 70
3 | CCC1ON=C(c2cc(N(COC(=O)C(C)(C)C)S(=O)(=O)C(F)(F)F)c(C)cc2C)C1CC (stereo not drawn) [Compound 347] | 0 | 0 | 10 | 20 | 20 | 50 | 20 | 30 | 95 | 0 | 30 | 0 | 40 | 0 | 20
4 | CCC1ON=C(c2cc(N(C(=O)OCC(C)C)S(=O)(=O)C(F)(F)F)c(C)cc2C)C1CC (stereo not drawn) [Compound 348] | 0 | 10 | 0 | 20 | 0 | 70 | 20 | 30 | 95 | 0 | 90 | 0 | 30 | 0 | 30
5 | Cc1cc(C)c(C2=NOC3OCCC23)cc1NS(=O)(=O)C(F)(F)F (stereo not drawn) [Compound 349] | 30 | 90 | 0 | 30 | 20 | 70 | 30 | 90 | 90 | 40 | 70 | 90 | 90 | 20 | 70
6 | CCOC(=O)N(c1cc(C(=O)N2CCC(F)(F)CC2)c(C)cc1C)S(=O)(=O)C(F)(F)F [Compound 351] | 50 | 90 | 0 | 10 | 10 | 20 | 30 | 50 | 90 | 0 | 80 | 40 | 90 | 10 | 50
7 | Cc1cc(C)c(N(COC(=O)C(C)(C)C)S(=O)(=O)C(F)(F)F)cc1C1=NOC2OCCC12 (stereo not drawn) [Compound 352] | 60 | 90 | 0 | 20 | 20 | 60 | 20 | 70 | 90 | 0 | 20 | 80 | 90 | 10 | 20
8 | Cc1cc(C)c(N(COC(=O)C(C)(C)C)S(=O)(=O)C(F)(F)F)cc1C(=O)N1CCC(C)CC1 [Compound 353] | 20 | 20 | 0 | 10 | 0 | 30 | 20 | 50 | 90 | 0 | 0 | 0 | 30 | 0 | 0
9 | CCOC(=O)N(c1cc(C(=O)N2CCC(C)CC2)c(C)cc1C)S(=O)(=O)C(F)(F)F [Compound 354] | 20 | 50 | 0 | 10 | 0 | 10 | 0 | 70 | 90 | 0 | 0 | 0 | 100 | 0 | 30
10 | Cc1cc(C2CC2)c(C2=NOC3CCCC23)cc1N(COC(=O)C(C)(C)C)S(=O)(=O)C(F)(F)F (stereo not drawn) [Compound 355] | 0 | 40 | 0 | 10 | 0 | 30 | 10 | 60 | 60 | 0 | 0 | 0 | 70 | 10 | 10
11 | Cc1c(NS(=O)(=O)C(F)(F)F)cc(C(=O)N2CCC(F)CC2)c(C)c1C [Compound 358] | 40 | 80 | 0 | 0 | 0 | 40 | 0 | 40 | 50 | 0 | 0 | 0 | 80 | 0 | 30
12 | Cc1c(C(=O)N2CCC(Cl)CC2)cc(N(COC(=O)C(C)(C)C)S(=O)(=O)C(F)(F)F)c(C)c1C [Compound 359] | 0 | 80 | 0 | 0 | 0 | 20 | 0 | 60 | 95 | 0 | 0 | 0 | 20 | 0 | 0
13 | Cc1c(C(=O)N2CCC(F)CC2)cc(N(COC(=O)C(C)(C)C)S(=O)(=O)C(F)(F)F)c(C)c1C [Compound 361] | 20 | 90 | 0 | 20 | 10 | 20 | 10 | 50 | 95 | 0 | 0 | 0 | 30 | 0 | 0
14 | Cc1cc(C)c(N(COC(=O)C(C)(C)C)S(=O)(=O)C(F)(F)F)cc1C(=O)N1CCOCC1 [Compound 362] | 0 | 50 | 0 | 10 | 10 | 30 | 20 | 90 | 95 | 0 | 50 | 40 | 90 | 20 | 70
15 | Cc1cc(C)c(N(COC(=O)C(C)(C)C)S(=O)(=O)C(F)(F)F)cc1C(=O)N1CCC(c2ccccc2)CC1 [Compound 364] | 0 | 0 | 0 | 0 | 0 | 0 | 0 | 20 | 0 | 0 | 0 | 0 | 0 | 0 | 0
